From the supplement of paper PMC11061612

What was measured:
A2058 (Melanoma) = assay: Bliss excess, mean over the matrix (fraction); higher = more synergy
In short: (§1)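 After 24 hours at 37°C and 5% CO2 in 1536-well plates, cells in DMEM/F12 or RPMI plus 10% FBS received two-drug dose matrices for 72 hours. Viability came from CellTiter-Glo 2.0 luminescence and was scaled as inhibition, anchored at 0 by vehicle wells and at 1 by blank wells. Combination Emax is taken as the second-highest inhibition in the matrix, and Bliss excess as the observed combination effect less EA + EB − EA·EB, with EA and EB the single-agent effects.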

[1] = test system: CAL-120 (Breast Carcinoma); assay: as above
In short: as §1

[2] = test system: LB996-RCC (Kidney Carcinoma); assay: as above
In short: as §1

[3] = test system: COLO-680N (Esophageal Squamous Cell Carcinoma); assay: combination Emax (second highest fraction inhibited in the dose matrix, 72 h); higher = more inhibition; extreme values may be limits of the assay
In short: as §1

[4] = test system: FADU (Head and Neck Carcinoma); assay: as above
In short: as §1

GB-1 (Glioblastoma) = assay: as above
In short: as §1

IST-MES1 (Mesothelioma) = assay: as above
In short: as §1

[5] = test system: MFE-280 (Endometrial Carcinoma); assay: as above
In short: as §1

[6] = test system: NCI-H23 (Lung Adenocarcinoma); assay: as above
In short: as §1

[7] = test system: NCI-H2342 (Lung Adenocarcinoma); assay: as above
In short: as §1

[8] = test system: NCI-H446 (Small Cell Lung Carcinoma); assay: as above
In short: as §1

[9] = test system: OPM-2 (Plasma Cell Myeloma); assay: as above
In short: as §1

[10] = test system: PANC-03-27 (Pancreatic Carcinoma); assay: as above
In short: as §1

[11] = test system: PC-3_[JPC-3] (Lung Adenocarcinoma); assay: as above
In short: as §1

[12] = test system: PSN1 (Pancreatic Carcinoma); assay: as above
In short: as §1

[13] = test system: REH (B-Lymphoblastic Leukemia); assay: as above
In short: as §1

[14] = test system: RERF-LC-Sq1 (Squamous Cell Lung Carcinoma); assay: as above
In short: as §1

[15] = test system: SHP-77 (Small Cell Lung Carcinoma); assay: as above
In short: as §1

[16] = test system: SU-DHL-10 (B-Cell Non-Hodgkin's Lymphoma); assay: as above
In short: as §1

WM278 (Melanoma) = assay: as above
In short: as §1
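For Bliss excess, mean over the matrix in this document: after 72 h of two-drug dosing.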

| Structure (SMILES) | Bliss excess (A2058 (Melanoma)) | Bliss excess [1] | Bliss excess [2] | combination Emax [3] | combination Emax [4] | combination Emax (GB-1 (Glioblastoma)) | combination Emax (IST-MES1 (Mesothelioma)) | combination Emax [5] | combination Emax [6] | combination Emax [7] | combination Emax [8] | combination Emax [9] | combination Emax [10] | combination Emax [11] | combination Emax [12] | combination Emax [13] | combination Emax [14] | combination Emax [15] | combination Emax [16] | combination Emax (WM278 (Melanoma)) |
| --- | --- | --- | --- | --- | --- | --- | --- | --- | --- | --- | --- | --- | --- | --- | --- | --- | --- | --- | --- | --- |
| CC1(C)CCC(CN2CCN(c3ccc(C(=O)NS(=O)(=O)c4ccc(NCC5CCOCC5)c([N+](=O)[O-])c4)c(Oc4cnc5[nH]ccc5c4)c3)CC2)=C(c2ccc(Cl)cc2)C1 [Venetoclax] + C1CN(CCC1(C(=O)N[C@@H](CCO)C2=CC=C(C=C2)Cl)N)C3=NC=NC4=C3C=CN4 [Capivasertib] (first compound max 1 µM, 7x7, partner max 3 µM) | -0.0333 | -0.0198 | -0.0573 | 0.0815 | 0.155 | 0.185 | 0.123 | 0.512 | 0.119 | 0.248 | 0.561 | 0.925 | 0.626 | 0.168 | 0.218 | 0.936 | 0.663 | 0.402 | 0.957 | 0.232 |
| CC1(C)CCC(CN2CCN(c3ccc(C(=O)NS(=O)(=O)c4ccc(NCC5CCOCC5)c([N+](=O)[O-])c4)c(Oc4cnc5[nH]ccc5c4)c3)CC2)=C(c2ccc(Cl)cc2)C1 [Venetoclax] + C=CCn1c(=O)c2cnc(Nc3ccc(N4CCN(C)CC4)cc3)nc2n1-c1cccc(C(C)(C)O)n1 [AZD1775] (first compound max 1 µM, partner max 1 µM) | -0.0886 | -0.0309 | -0.0466 | 0.257 | 0.491 | 0.296 | 0.254 | 0.621 | 0.855 | 0.268 | 0.943 | 0.971 | 0.855 | 0.427 | 0.391 | 1 | 0.586 | 0.733 | 0.967 | 0.436 |
| CC1(C)CCC(CN2CCN(c3ccc(C(=O)NS(=O)(=O)c4ccc(NCC5CCOCC5)c([N+](=O)[O-])c4)c(Oc4cnc5[nH]ccc5c4)c3)CC2)=C(c2ccc(Cl)cc2)C1 [Venetoclax] + CCN(CCO)CCCOc1ccc2c(Nc3cc(CC(=O)Nc4cccc(F)c4)[nH]n3)ncnc2c1 [AZD2811] (first compound max 1 µM, 7x7, partner max 1 µM) | 0.0655 | -0.014 | -0.0133 | 0.187 | 0.219 | 0.094 | 0.198 | 0.371 | 0.184 | 0.217 | 0.894 | 0.689 | 0.673 | 0.182 | 0.222 | 1 | 0.361 | 0.64 | 0.807 | 0.337 |
| CC1(C)CCC(CN2CCN(c3ccc(C(=O)NS(=O)(=O)c4ccc(NCC5CCOCC5)c([N+](=O)[O-])c4)c(Oc4cnc5[nH]ccc5c4)c3)CC2)=C(c2ccc(Cl)cc2)C1 [Venetoclax] + CN(C)CCCOc1ccc(-c2ccc3ncc4c(c3c2)n(C2CCOCC2)c(=O)n4C)cn1 [AZD0156] (first compound max 1 µM, 7x7, partner max 1 µM) | 0.0014 | -0.0307 | -0.0398 | 0.173 | 0.196 | 0.115 | 0.0799 | 0.423 | 0.122 | 0.203 | 0.304 | 0.574 | 0.684 | 0.25 | 0.3 | 0.908 | 0.229 | 0.424 | 0.137 | 0.211 |
| CC1(C)CCC(CN2CCN(c3ccc(C(=O)NS(=O)(=O)c4ccc(NCC5CCOCC5)c([N+](=O)[O-])c4)c(Oc4cnc5[nH]ccc5c4)c3)CC2)=C(c2ccc(Cl)cc2)C1 [Venetoclax] + COc1cc(Nc2ncc3c(n2)-c2ccc(Cl)cc2C(c2c(F)cccc2OC)=NC3)ccc1C(=O)O [Alisertib] (first compound max 1 µM, 7x7, partner max 10 µM) | -0.0871 | -0.0182 | -0.0096 | 0.318 | 0.351 | 0.478 | 0.489 | 0.734 | 0.464 | 0.214 | 0.909 | 0.828 | 0.56 | 0.686 | 0.526 | 0.99 | 0.42 | 0.719 | 0.827 | 0.362 |
| CC1(C)CCC(CN2CCN(c3ccc(C(=O)NS(=O)(=O)c4ccc(NCC5CCOCC5)c([N+](=O)[O-])c4)c(Oc4cnc5[nH]ccc5c4)c3)CC2)=C(c2ccc(Cl)cc2)C1 [Venetoclax] + C[C@@H]1COCCN1C2=NC(=NC(=C2)C3(CC3)[S@](=N)(=O)C)C4=C5C=CNC5=NC=C4 [AZD6738] (first compound max 1 µM, 7x7, partner max 10 µM) | -0.0008 | -0.0118 | -0.066 | 0.278 | 0.614 | 0.424 | 0.396 | 0.423 | 0.822 | 0.265 | 0.924 | 0.943 | 0.781 | 0.442 | 0.396 | 0.996 | 0.675 | 0.697 | 0.912 | 0.623 |
| CC1(C)CCC(CN2CCN(c3ccc(C(=O)NS(=O)(=O)c4ccc(NCC5CCOCC5)c([N+](=O)[O-])c4)c(Oc4cnc5[nH]ccc5c4)c3)CC2)=C(c2ccc(Cl)cc2)C1 [Venetoclax] + C[C@@H](Nc1cc(F)cc(F)c1)c1cc(C(=O)N(C)C)cc2c(=O)cc(N3CCOCC3)oc12 [AZD8186] (first compound max 1 µM, 7x7, partner max 3 µM) | -0.0031 | -0.0194 | 0.0035 | 0.111 | 0.128 | 0.168 | 0.176 | 0.371 | 0.148 | 0.265 | 0.581 | 0.513 | 0.592 | 0.298 | 0.313 | 0.96 | 0.121 | 0.322 | 0.735 | 0.306 |
| CC1(C)CCC(CN2CCN(c3ccc(C(=O)NS(=O)(=O)c4ccc(NCC5CCOCC5)c([N+](=O)[O-])c4)c(Oc4cnc5[nH]ccc5c4)c3)CC2)=C(c2ccc(Cl)cc2)C1 [Venetoclax] + Cc1cc2ncnn2cc1Nc1ncc2c(n1)n(C1CCOCC1)c(=O)n2C [AZD7648] (first compound max 1 µM, 7x7, partner max 10 µM) | 0.007 | -0.0338 | -0.0258 | 0.161 | 0.237 | 0.135 | 0.195 | 0.319 | 0.184 | 0.214 | 0.403 | 0.642 | 0.584 | 0.297 | 0.37 | 0.875 | 0.229 | 0.34 | 0.249 | 0.269 |
| CC1(C)CCC(CN2CCN(c3ccc(C(=O)NS(=O)(=O)c4ccc(NCC5CCOCC5)c([N+](=O)[O-])c4)c(Oc4cnc5[nH]ccc5c4)c3)CC2)=C(c2ccc(Cl)cc2)C1 [Venetoclax] + Cn1cnc2c(F)c(Nc3ccc(Br)cc3Cl)c(C(=O)NOCCO)cc21 [Selumetinib] (first compound max 1 µM, 7x7, partner max 3 µM) | -0.005 | -0.0174 | -0.0209 | 0.159 | 0.364 | 0.0816 | 0.161 | 0.18 | 0.264 | 0.193 | 0.198 | 0.385 | 0.684 | 0.173 | 0.622 | 0.897 | 0.312 | 0.455 | 0.072 | 0.633 |
